# Assay results: ChEMBL document CHEMBL1130292, “Novel cyanoguanidines with potent oral antitumour activity” (Bioorg Med Chem Lett, 1997)
# Key:
# [1] = tested on: NYH small cell lung cancer (Homo sapiens); test: Evaluated in vitro for antiproliferative activity against NYH cell lines derived from small cell lung cancer
# MCF7 = test: Evaluated in vitro for antiproliferative activity against MCF-7 cell lines model of hormone dependent breast cancer; assay type: functional, cell-based; details: Homo sapiens
# NCI-H460 = test: Evaluated in vitro for antiproliferative activity against […] cell lines derived from large cell carcinoma of the lung; assay type: functional, cell-based; details: Homo sapiens
# Mus musculus [2] = test: Percent median treated tumor size to that of control tumor size in NYH treatment model in mice (in vivo) after peroral administration of compound (20 mg/kg, number of tumors 8); assay type: functional
# Mus musculus [3] = test: Percent median treated tumor size to that of control tumor size in NYH treatment model in mice (in vivo) after peroral administration of compound (20 mg/kg, number of tumors 11); assay type: functional
# Mus musculus [4] = test: Percent median treated tumor size to that of control tumor size in NYH treatment model in mice (in vivo) after peroral administration of compound (20 mg/kg, number of tumors 9); assay type: functional
# WALKER = test: In vitro antiproliferative activity against Walker cell line; assay type: functional, cell-based; details: Rattus norvegicus
# YOSHIDA = test: In vitro antiproliferative activity against Yoshida cell lines; assay type: functional, cell-based; details: Rattus norvegicus
# B16 = test: In vitro antiproliferative activity against B16 cell lines; assay type: functional, cell-based; details: Mus musculus
# Mus musculus [5] = test: Percent median treated tumor size to that of control tumor size in NYH treatment model in mice (in vivo) after peroral administration of compound (25 mg/kg, number of tumors 9); assay type: functional
# Mus musculus [6] = test: Percent median treated tumor size to that of control tumor size in NYH treatment model in mice (in vivo) after peroral administration of compound (20 mg/kg, number of tumors 20); assay type: functional
# [7] = tested on: Lewis lung carcinoma cell line; test: In vitro antiproliferative activity against Lewis cell lines; assay type: functional, cell-based; details: Mus musculus
# Mus musculus [8] = test: Percent median treated tumor size to that of control tumor size in NYH treatment model in mice (in vivo) after peroral administration of compound (50 mg/kg, number of tumors 13); assay type: functional
# [9] = In vitro antiproliferative activity against Fibroblasts; assay type: functional
# Mus musculus [10] = test: Percent median treated tumor size to that of control tumor size in NYH treatment model in mice (in vivo) after intraperitoneal administration of compound (0.5 mg/kg, number of tumors 8); assay type: functional
# Mus musculus [11] = test: Percent median treated tumor size to that of control tumor size in NYH treatment model in mice (in vivo) after subcutaneous administration of compound (10 mg/kg, number of tumors 7); assay type: functional
IC50 [1],IC50 (MCF7),IC50 (NCI-H460),SMILES,further results
0.6 nM,1.9 nM,5.8 nM,N#CN/C(=N\CCCCCCOc1ccccc1Cl)Nc1ccncc1,
22 nM,42 nM,360 nM,N#CN/C(=N\CCCCCCCOc1ccccc1)Nc1cccnc1,
0.5 nM,1.1 nM,21 nM,COc1ccccc1OCCCCCC/N=C(\NC#N)Nc1ccncc1,
12 nM,37 nM,37 nM,COc1ccc(OCCCCCC/N=C(\NC#N)Nc2ccncc2)cc1,
15 nM,54 nM,480 nM,N#CN/C(=N\CCCCCCCCOc1ccc(Cl)cc1)Nc1ccncc1,
52 nM,120 nM,590 nM,N#CN/C(=N\CCCCCCOc1ccc([N+](=O)[O-])cc1)Nc1ccncc1,
4.9 nM,30 nM,52 nM,N#CN/C(=N\CCCCCCOc1ccccc1)Nc1ccncc1,
1.9 nM,3.8 nM,38 nM,COc1cccc(OCCCCCC/N=C(\NC#N)Nc2ccncc2)c1,T/C (Mus musculus [2]): 42%
0.6 nM,6.3 nM,41 nM,N#CN/C(=N\CCCCCCOc1ccccc1[N+](=O)[O-])Nc1ccncc1,
6.2 nM,56 nM,69 nM,N#CN/C(=N\CCCCCCCOc1ccc(Cl)cc1)Nc1ccncc1,
0.6 nM,14 nM,27 nM,N#CN/C(=N\CCCCCCCOc1ccccc1)Nc1ccncc1,T/C (Mus musculus [3]): 35%
6.1 nM,8.8 nM,59 nM,N#CN/C(=N\CCCCCCOc1cccc(Cl)c1)Nc1ccncc1,
52 nM,230 nM,530 nM,N#CN/C(=N\CCCCCCOc1ccccc1)Nc1cccnc1,
5.7 nM,31 nM,74 nM,N#CN/C(=N\CCCCCCOc1cccc([N+](=O)[O-])c1)Nc1ccncc1,
6.3 nM,53 nM,590 nM,N#CN/C(=N\CCCCCOc1ccc(Cl)cc1)Nc1ccncc1,
2.1 nM,4.4 nM,13 nM,N#CN/C(=N\CCCCCCOc1cc(Cl)c(Cl)cc1Cl)Nc1ccncc1,T/C (Mus musculus [4]): 0%
2.7 nM,31 nM,50 nM,N#CN=C(NCCCCCCOc1ccc(Cl)cc1)Nc1ccncc1 [CHS-828],IC50 (WALKER): 500 nM; IC50 (YOSHIDA): 140 nM; IC50 (B16): 280 nM; T/C (Mus musculus [5]): 0%; T/C (Mus musculus [6]): 0%; IC50 [7]: 560 nM; T/C (Mus musculus [8]): 0%; IC50 [9]: 40 nM
3.9 nM,39 nM,3.5 nM,COc1cccc2c1C(=O)c1c(O)c3c(c(O)c1C2=O)C[C@@](O)(C(C)=O)C[C@@H]3O[C@H]1C[C@H](N)[C@H](O)[C@H](C)O1 [DAUNORUBICIN],IC50 (WALKER): 47 nM; IC50 (YOSHIDA): 7.4 nM; T/C (Mus musculus [10]): 105%; IC50 (B16): 9.2 nM; IC50 [7]: 61 nM
4.3 nM,,,CC(=O)O[C@H]1C(=O)[C@@]2(C)[C@H]([C@H](OC(=O)c3ccccc3)[C@]3(O)C[C@H](OC(=O)[C@H](O)[C@@H](NC(=O)c4ccccc4)c4ccccc4)C(C)=C1C3(C)C)[C@]1(OC(C)=O)CO[C@@H]1C[C@@H]2O [PACLITAXEL],IC50 (WALKER): 150 nM; IC50 (YOSHIDA): 7.9 nM; IC50 (B16): 8 nM; T/C (Mus musculus [11]): 48%; IC50 [7]: 61 nM; IC50 [9]: 0.9 nM
